These results are taken from patent publication US9006295B2, “Process for bacterial stabilizing of aqueous ground natural calcium carbonate and/or precipitated calcium carbonate and/or dolomite and/or surface-reacted calcium carbonate-comprising mineral preparations” (Omya International AG, priority 2009, dated 2015).

“Also recorded” adds a separate entry of the source.

Test [1] concerns mixture of Pseudomonas species containing predominantly Pseudomonas putida and Pseudomonas stutzeri that are resistant to BM2. The experiment in a line: Biocidal activity in slurry, BM2-resistant bacteria. The format is cell-based. The settings on record: GNCCS1 slurry. The procedure: (§1) All quoted bacterial counts (Total Viable Count (TVC) values are in cfu/ml) in the Tables herebelow are determined after 5 days following plate-out and in accordance with counting method described in “Bestimmung von aeroben mesophilen Keimen”, Schweizerisches Lebensmittelbuch, chapter 56, section 7.01, edition of 1985, revised version of 1988.
BM2 and AMP were introduced into 50 g samples of each of the slurries indicated in Table 5 in the listed amounts (quoted in ppm based on the weight of the aqueous phase in the slurry). A reference was prepared according to the same protocol but in absence of AMP. References were prepared according to the same protocol but in absence of AMP and in absence of AMP and BM2.
The slurry samples were then inoculated with 1 ml of a mixture of Pseudomonas species containing predominantly Pseudomonas putida and Pseudomonas stutzeri that are resistant to BM2. Each of the samples was incubated at 30° C. for 72 hours. Thereafter, a 1:10 dilution in phosphate buffered saline (PBS) was plated on plate count agar (PCA). These plates were incubated at 30° C. and analysed after 5 days.
Biocide mixture 2 (BM2) is an aqueous solution containing 85% by weight of EGHF and 1.5% by weight of a combination of CIT and MIT (in a weight ratio CIT:MIT of 3:1), relative to the total solution weight. […]

The subject of a further test is Pseudomonas aeruginosa. The note with it: in combination with 500 ppm of triazine biocide; TSB-based plates; cited from earlier work.
In test [2] the test system is mixture of Pseudomonas species containing predominantly Pseudomonas putida and Pseudomonas stutzeri. The experiment in a line: Biocidal activity in slurry (Total Viable Count after inoculation). The format is cell-based. The settings on record: GNCCS1 slurry; Tables 1, 2 and 4. The procedure: as §1
Biocide mixture 1 (BM1) is an aqueous solution containing 24% by weight of GDA and 1.5% by weight of a combination of CIT and MIT (in a weight ratio CIT:MIT of 3:1), relative to the total solution weight. BM1 and AMP were introduced into 50 g samples of each of the slurries indicated in Table 1 in the listed amounts (quoted in ppm based on the weight of the aqueous phase in the slurry). References were prepared according to the same protocol but in absence of AMP and in absence of AMP and BM1.
The slurry samples were then inoculated with 1 ml of a mixture of Pseudomonas species containing predominantly Pseudomonas putida and Pseudomonas stutzeri. Each of the samples was incubated at 30° C. for 72 hours. Thereafter, a 1:10 dilution in phosphate buffered saline (PBS) was plated on plate count agar (PCA). These plates were incubated at 30° C. and analysed after 5 days. […]

Test [3] relates to mixture of Pseudomonas species containing predominantly Pseudomonas putida and Pseudomonas stutzeri that are resistant to BM1. Nature of the test: Biocidal activity in slurry, BM1-resistant bacteria. The class given is cell-based. The note with it: GNCCS1 slurry. Here is the method: as §1
BM1 and AMP were introduced into 50 g samples of each of the slurries indicated in Table 3 in the listed amounts (quoted in ppm based on the weight of the aqueous phase in the slurry). References were prepared according to the same protocol but in absence of AMP and in absence of AMP and BM1.
The slurry samples were then inoculated with 1 ml of a mixture of Pseudomonas species containing predominantly Pseudomonas putida and Pseudomonas stutzeri that are resistant to BM1. Each of the samples was incubated at 30° C. for 72 hours. Thereafter, a 1:10 dilution in phosphate buffered saline (PBS) was plated on plate count agar (PCA). These plates were incubated at 30° C. and analysed after 5 days.
Biocide mixture 1 (BM1) is an aqueous solution containing 24% by weight of GDA and 1.5% by weight of a combination of CIT and MIT (in a weight ratio CIT:MIT of 3:1), relative to the total solution weight. […]

In test [4] the test system is mixture of Pseudomonas species containing predominantly Pseudomonas putida and Pseudomonas stutzeri that are resistant to OPP. Nature of the test: Biocidal activity in slurry, OPP-resistant bacteria. The class given is cell-based. The settings on record: GNCCS1 slurry. The procedure: as §1
OPP, in the form of an aqueous solution having a concentration of 45%, and MEA were introduced into 50 g samples of each of the slurries indicated in Table 11 in the listed amounts (quoted in ppm active content based on the weight of the aqueous phase in the slurry). A reference was prepared according to the same protocol but in absence of MEA. References were prepared according to the same protocol but in absence of MEA and in absence of MEA and OPP.
The slurry samples were then inoculated with 1 ml of a mixture of Pseudomonas species containing predominantly Pseudomonas putida and Pseudomonas stutzeri that are resistant to OPP. Each of the samples was incubated at 30° C. for 72 hours. Thereafter, a 1:10 dilution in phosphate buffered saline (PBS) was plated on plate count agar (PCA). These plates were incubated at 30° C. and analysed after 5 days.
Test 59 below represents the same slurry as Test 58, but following a second inoculation of 1 ml of a mixture of Pseudomonas species. […]

As to `CC(C)(N)CO` [AMP, 2-amino-2-methyl-1-propanol], the figures for the “biocide enhancement (in words)” value in test [1] and in test [2] were “enhances the biocide function of BM2” and “enhances the biocide function of BM1; also recorded: enhances the biocide function of BM2”, respectively. In the test on Pseudomonas aeruginosa, the “amount of AMP needed to significantly influence the growth rate of the bacteria” value was “more than 4 000 ppm”.

For `NCCO` [MEA, 2-aminoethanol], the results for the “biocide enhancement (in words)” value in test [1], in test [3] and in test [4] were “enhances the biocide function of BM2”, “enhances the biocide function of BM1” and “enhances the biocide function of OPP”, respectively.
